# Assay results from US9834512B2, “(22E)-2-methylene-26,27-cyclo-22-dehydro-1α-hydroxy-19-norvitamin D3 derivatives” (WISCONSIN ALUMNI RESEARCH FOUNDATION, priority 2011, dated 2017).
# “Also recorded” adds a separate entry of the source. Like-named read-outs stand apart in the source and are kept apart here.
# Tests used:
# vitamin D receptor [1] = biological target: T1, vitamin D receptor (Rattus norvegicus, UniProt P13053); details: compounds of U.S. Pat. No. 7,915,242; read-out: Competitive VDR Binding, Ki; cited from earlier work
# T1 construct: Full-length recombinant rat receptor was expressed in E. coli; His tag (C); made in house; host or cells: E. coli BL21(DE3) Codon Plus RIL
# T1 sequence (P13053 1-423): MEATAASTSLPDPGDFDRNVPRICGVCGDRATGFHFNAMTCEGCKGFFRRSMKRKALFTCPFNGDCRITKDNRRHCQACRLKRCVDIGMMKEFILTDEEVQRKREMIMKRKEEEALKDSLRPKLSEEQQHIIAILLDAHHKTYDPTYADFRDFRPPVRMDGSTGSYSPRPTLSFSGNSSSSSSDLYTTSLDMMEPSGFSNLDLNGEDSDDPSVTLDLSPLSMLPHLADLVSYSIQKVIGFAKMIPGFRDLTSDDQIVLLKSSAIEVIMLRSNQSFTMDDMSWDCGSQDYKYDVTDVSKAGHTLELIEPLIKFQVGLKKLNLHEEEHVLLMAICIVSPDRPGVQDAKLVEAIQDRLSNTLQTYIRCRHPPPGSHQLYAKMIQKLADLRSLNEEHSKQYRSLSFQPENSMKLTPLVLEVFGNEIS
# vitamin D receptor [2] = biological target: T1, vitamin D receptor; assay: Competitive vitamin D receptor binding; details: for Competitive VDR Binding (Relative Activity): native hormone value / working example value, same assay; for Competitive VDR Binding (Relative Activity) / Ki: present compounds; for Ki: read-out: Competitive VDR Binding, Ki; for Binding to the nuclear vitamin D receptor compared with native hormone: versus 1,25(OH)2D3; for VDR binding activity relative to CN-67 (ratio of relative activities): versus CN-67
# Experimental: Full-length recombinant rat receptor was expressed in E. coli BL21(DE3) Codon Plus RIL cells and purified to homogeneity using two different column chromatography systems. The first system was a nickel affinity resin that utilizes the C-terminal histidine tag on this protein. The protein that was eluted from this resin was further purified using ion exchange chromatography (S-Sepharose Fast Flow). Aliquots of the purified protein were quick frozen in liquid nitrogen and stored at −80° C. until use. For use in binding assays, the protein was diluted in TEDK50 (50 mM Tris, 1.5 mM EDTA, pH 7.4, 5 mM DTT, 150 mM KCl) with 0.1% Chaps detergent. The receptor protein and ligand concentration was optimized such that no more than 20% of the added radiolabeled ligand was bound to the receptor.
# Unlabeled ligands were dissolved in ethanol and the concentrations determined using UV spectrophotometry (1,25(OH)2D3: molar extinction coefficient=18,200 and λmax=265 nm; Analogs: molar extinction coefficient=42,000 and λmax=252 nm). Radiolabeled ligand (^3H-1,25(OH)2D3, ˜159 Ci/mmole) was added in ethanol at a final concentration of 1 nM.
# Radiolabeled and unlabeled ligands were added to 100 mcl of the diluted protein at a final ethanol concentration of ≦10%, mixed and incubated overnight on ice to reach binding equilibrium. The following day, 100 mcl of hydroxylapatite slurry (50%) was added to each tube and mixed at 10-minute intervals for 30 minutes. The hydroxylapaptite was collected by centrifugation and then washed three times with Tris-EDTA buffer (50 mM Tris, 1.5 mM EDTA, pH 7.4) containing 0.5% Titron X-100. After the final wash, the pellets were transferred to scintillation vials containing 4 ml of Biosafe II scintillation cocktail, mixed and placed in a scintillation counter. Total binding was determined from the tubes containing only radiolabeled ligand.
# HL-60 cells = assay: HL-60 differentiation (nitro blue tetrazolium reduction); assay type: cell-based, human; details: for EC50: Homo sapiens, HL-60; for HL-60 cell differentiation activity: compound alone; for HL-60 Differentiation (Relative Activity): native hormone value / working example value, same assay
# Experimental: The study drugs were dissolved in ethanol and the concentrations determined using UV spectrophotometry. Serial dilutions were prepared so that a range of drug concentrations could be tested without changing the final concentration of ethanol (≦0.2%) present in the cell cultures.
# Human promyelocytic leukemia (HL60) cells were grown in RPMI-1640 medium containing 10% fetal bovine serum. The cells were incubated at 37° C. in the presence of 5% CO2.
# HL60 cells were plated at 1.2×10^5 cells/ml. Eighteen hours after plating, cells in duplicate were treated with the drug. Four days later, the cells were harvested and a nitro blue tetrazolium reduction assay was performed (Collins et al., 1979; J. Exp. Med. 149:969-974). The percentage of differentiated cells was determined by counting a total of 200 cells and recording the number that contained intracellular black-blue formazan deposits. Verification of differentiation to monocytic cells was determined by measuring phagocytic activity (data not shown).
# Antagonism was tested by adding a combination of 1,25(OH)2D3 and the putative antagonist in the same well keeping the final ethanol concentration the same.
# [3] = system: 24-hydroxylase (24OHase) gene promoter; assay: In vitro 24-hydroxylase transcription assay (luciferase reporter, ROS 17/2.8 bone cells); assay type: cell-based; details: for Antagonism of gene transactivation stimulated by native hormone: combined with 1,25(OH)2D3; for 24OHase Transcription (Relative Activity): native hormone value / working example value, same assay
# Experimental: Transcription activity was measured in ROS 17/2.8 (bone) cells that were stably transfected with a 24-hydroxylase (24OHase) gene promoter upstream of a luciferase reporter gene (Arbour et al., 1998). Cells were given a range of doses. Sixteen hours after dosing, the cells were harvested and luciferase activities were measured using a luminometer. RLU=relative luciferase units.
# Sprague-Dawley rats [4] = assay: Bone calcium mobilization (serum calcium); assay type: in vivo, rat; details: for Bone calcium mobilization activity: rat, intraperitoneal, at the doses tested
# Experimental: (§1) Male, weanling Sprague-Dawley rats were placed on Diet 11 (0.47% Ca) diet+AEK oil for one week followed by Diet 11 (0.02% Ca)+AEK oil for 3 weeks. The rats were then switched to a diet containing 0.47% Ca for one week followed by two weeks on a diet containing 0.02% Ca. Dose administration began during the last week on 0.02% calcium diet. Four consecutive intraperitoneal doses were given approximately 24 hours apart. Twenty-four hours after the last dose, blood was collected from the severed neck and the concentration of serum calcium determined as a measure of bone calcium mobilization. The first 10 cm of the intestine was also collected for intestinal calcium transport analysis using the everted gut sac method.
# (§2) Antagonism was tested by administering a combination of 1,25(OH)2D3 and the putative antagonist to the animal simultaneously.
# Sprague-Dawley rats [5] = assay: Intestinal calcium transport (everted gut sac); assay type: in vivo, rat; details: for Intestinal calcium transport activity compared with native hormone: rat, intraperitoneal; for Intestinal calcium transport activity at very high doses: very high doses (e.g., 2340-2600 pmol)
# Experimental: as §1, §2
# [6] = when administered with 1,25(OH)2D3, present compounds
# [7] = combined with 1,25(OH)2D3, systemic administration
compound,measurement,setting,value
"C=C1C(O)CC(=CC=C2CCCC3(C)C2CCC3C(C)C=CC(OCCCC)C2(C(=O)OCCCC)CC2)CC1O [CN-67, (22E)-(24R)-24-butoxy-25-carbobutoxy-2-methylene-26,27-cyclo-22-dehydro-1α-hydroxy-19-norvitamin D3]",Ki,vitamin D receptor [1],1.5 nM
"C=C1C(O)CC(=CC=C2CCCC3(C)C2CCC3C(C)C=CC(O)C2(C(=O)OCCCC)CC2)CC1O [OU-72, (22E)-(24R)-25-carbobutoxy-2-methylene-26,27-cyclo-22-dehydro-1α,24-dihydroxy-19-norvitamin D3]",Ki,vitamin D receptor [1],0.023 nM
"C=C1[C@H](O)CC(=C/C=C2\CCC[C@]3(C)[C@@H]([C@H](C)/C=C/[C@@H](O)C4(C(=O)SCCCC)CC4)CC[C@@H]23)C[C@H]1O [AS-51, (20R,22E,24R)-25-carbobutylsulfanyl-2-methylene-26,27-cyclo-22-dehydro-1α,24-dihydroxy-19-norvitamin D3]",Competitive VDR Binding (Relative Activity),vitamin D receptor [2],1.0
same,Ki,vitamin D receptor [2],0.1 nM
same,Binding to the nuclear vitamin D receptor compared with native hormone,vitamin D receptor [2],same potency as the native hormone; also recorded: bind the vitamin D receptor
same,VDR binding activity relative to CN-67 (ratio of relative activities),vitamin D receptor [2],≈ 67 times
same,EC50,HL-60 cells; present compounds,> 1000 nM
same,Concentrations showing inhibition of cellular differentiation,HL-60 cells; antagonist mode,10^−8-10^−7 M
same,Inhibition of native hormone-induced HL-60 differentiation,"HL-60 cells; combined with 1,25(OH)2D3",potent inhibitor of the native hormone; also recorded: antagonistic activity
same,HL-60 cell differentiation activity,HL-60 cells,does not effectively promote cellular differentiation
same,HL-60 Differentiation (Relative Activity),HL-60 cells; present compounds,0.002
same,HL-60 potency relative to CN-67 (ratio of relative activities),HL-60 cells; versus CN-67,≈ 0.03
same,HL-60 potency relative to OU-72 (ratio of relative activities),HL-60 cells; versus OU-72,≈ 0.007
same,"HL-60 Differentiation, antagonism",HL-60 cells; [6],Antagonistic
same,Concentrations showing inhibition of gene transactivation,[3]; antagonist mode,10^−8-10^−7 M
same,Times less potent than native hormone in increasing transcription of the 24-hydroxylase gene,"[3]; bone cells, versus 1,25(OH)2D3",~60 times
same,Antagonism of gene transactivation stimulated by native hormone,[3],can inhibit gene transactivation stimulated by the native hormone; also recorded: antagonistic activity; also recorded: inhibits gene transactivation stimulated by the native hormone
same,24OHase Transcription (Relative Activity),[3]; present compounds,0.02
same,EC50,[3]; present compounds,6 nM
same,24-hydroxylase transcription potency relative to CN-67 (ratio of relative activities),"[3]; versus CN-67, bone cells",≈ 3
same,24-hydroxylase transcription potency relative to OU-72 (ratio of relative activities),"[3]; versus OU-72, bone cells",2
same,"24OHase Transcription, antagonism",[3]; [6],Antagonistic
same,In vivo antagonism in combination with native hormone (bone calcium mobilization),Sprague-Dawley rats [4]; [7],no antagonism was observed
same,Bone calcium mobilization activity,Sprague-Dawley rats [4],essentially inactive in releasing bone calcium stores; also recorded: neither PP-48 nor AS-51 demonstrate any appreciable ability to mobilize calcium from bone
same,In vivo antagonism in combination with native hormone (intestinal calcium transport),Sprague-Dawley rats [5]; [7],no antagonism was observed
same,Intestinal calcium transport activity compared with native hormone,Sprague-Dawley rats [5],"somewhat less active than 1,25(OH)2D3 in stimulating intestinal calcium transport at very high doses; also recorded: potency less than that of the native hormone at low doses"
same,Intestinal calcium transport activity at very high doses,Sprague-Dawley rats [5],increased intestinal calcium transport activity at very high doses
"C=C1[C@H](O)CC(=C/C=C2\CCC[C@]3(C)[C@@H]([C@H](C)/C=C/C(=O)C4(C(=O)CCC(C)C)CC4)CC[C@@H]23)C[C@H]1O [PP-48, (20R,22E)-2-methylene-25-(4-methylpentanoyl)-24-oxo-26,27-cyclo-22-dehydro-1α-hydroxy-19-norvitamin D3]",Competitive VDR Binding (Relative Activity),vitamin D receptor [2],0.17
same,Ki,vitamin D receptor [2],0.6 nM
same,Binding to the nuclear vitamin D receptor compared with native hormone,vitamin D receptor [2],"lower affinity relative to 1,25(OH)2D3; also recorded: lower affinity than the native hormone; also recorded: bind the vitamin D receptor"
same,VDR binding activity relative to CN-67 (ratio of relative activities),vitamin D receptor [2],≈ 11 times
same,EC50,HL-60 cells; present compounds,30 nM
same,HL-60 cell differentiation activity,HL-60 cells,agonistic behavior; also recorded: active in causing HL-60 differentiation
same,HL-60 Differentiation (Relative Activity),HL-60 cells; present compounds,0.1
same,Antagonism of gene transactivation stimulated by native hormone,[3],no antagonistic activity
same,24-hydroxylase transcription activity,[3]; compound alone,"agonistic behavior; also recorded: exhibits activity in 24-hydroxylase transcription, albeit reduced from the native hormone"
same,24OHase Transcription (Relative Activity),[3]; present compounds,0.1
same,EC50,[3]; present compounds,2 nM
same,Bone calcium mobilization activity,Sprague-Dawley rats [4],essentially no ability to mobilize calcium from bone; also recorded: essentially inactive in releasing bone calcium stores; also recorded: neither PP-48 nor AS-51 demonstrate any appreciable ability to mobilize calcium from bone
same,Intestinal calcium transport activity at moderate doses,Sprague-Dawley rats [5]; moderate doses,only PP-48 increased such transport significantly at moderate doses
same,Intestinal calcium transport activity compared with native hormone,Sprague-Dawley rats [5],potency similar to that of the native hormone
same,Intestinal calcium transport activity at very high doses,Sprague-Dawley rats [5],increased intestinal calcium transport activity at very high doses
